The assay has as its system M. tuberculosis H37Rv growth inhibition with meropenem. Kind of assay: dose response, H37Rv, with and without meropenem (AID 434987).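 Note: growth over 7 days at 37 °C before Alamar Blue read on day 9.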
Where [1] appears, read: M. tuberculosis H37Rv growth inhibition, measured here: IC50 without meropenem.
Where [2] appears, read: M. tuberculosis H37Rv growth inhibition, measured here: IC90 without meropenem.
[3] abbreviates: measured here: IC90 with meropenem.

Activity calls are given as the source filed them. The rule behind the calls is not given here. Where only a bound is given, the exact number is not on record here.

With `COc1ccc([N+](=O)[O-])cc1NS(=O)(=O)c1ccc(Cl)c(C(=O)Nc2sc3c(c2C#N)CCCCC3)c1`, the IC50 was > 100 µM (inactive). Also, the IC50 under setting [1] is greater than 100 µM. Under setting [2], this compound had a concentration for an effect of 90% (IC90) greater than 100 µM. In addition, the IC90 under setting [3] was greater than 100 µM.

Regarding `Nc1c(Cl)cc(-c2csc(N3CCCC3c3nc4cc(Cl)c(N5CCCCC5)cc4n3CCCO)n2)cc1Cl` (stereo not drawn), the IC50 was 97.3 µM (inactive). For the same compound, under setting [1], the IC50 is greater than 100 µM. In addition, the concentration for an effect of 90% (IC90) under setting [2] was greater than 100 µM. Further, the IC90 under setting [3] is greater than 100 µM.

On to `CCc1cc(C(=O)O)c(NC(=O)/C=C/c2ccc(OC)cc2)s1`, for which the half-maximal inhibitory concentration (IC50) was 8.76 µM. The IC50 under setting [1] amounted to 21.5 µM. The compound also displayed an IC90 under setting [2] greater than 100 µM. Under setting [3], this compound came in with a 90% effect concentration (IC90) of 59.7 µM.

Turning to `Cc1ccc(C(=O)c2oc3ccccc3c2NC(=O)c2cc(-c3cc(C)ccc3O)n[nH]2)cc1`, the IC50 was > 100 µM (inactive). The IC50 under setting [1] was greater than 100 µM. This compound had a concentration for an effect of 90% (IC90) under setting [2] greater than 100 µM. Under setting [3], the IC90 is greater than 100 µM.

Take `O=S1(=O)CCO[C@H]2Cc3ccccc3[C@H]2N1Cc1ccc(Cl)cc1`: the IC50 is > 100 µM (inactive). Under setting [1], this compound gave a half-maximal inhibitory concentration (IC50) greater than 100 µM. In addition, the IC90 under setting [2] is greater than 100 µM. This compound gave an IC90 under setting [3] greater than 100 µM.

As for `CCOc1ccc(S(=O)(=O)n2nnc3ccccc32)cc1C(C)C`, the IC50 was > 100 µM (inactive). Under setting [1], the IC50 is greater than 100 µM. Under setting [2], this compound registered an IC90 greater than 100 µM. This compound also had an IC90 under setting [3] greater than 100 µM.

Turning to `COC(=O)N1C(=O)[C@](Cc2ccccc2)(c2ccccc2)N1C(=O)OC`, the IC50 was > 100 µM (inactive). The compound further gave an IC50 under setting [1] greater than 100 µM. Under setting [2], this compound had an IC90 greater than 100 µM. The IC90 under setting [3] was greater than 100 µM.

Turning to `COc1ccc2nc(NC(=O)NC3CCCCC3)sc2c1`, the IC50 is > 100 µM (inactive). Further, the IC50 under setting [1] is greater than 100 µM. The concentration for an effect of 90% (IC90) under setting [2] is greater than 100 µM. For the same compound, the IC90 under setting [3] is greater than 100 µM.

Regarding `CCc1cc2c(Sc3nc4ccccc4s3)ncnc2s1`, the IC50 was 50.6 µM (inactive). Under setting [1], this compound displayed an IC50 of 90.1 µM. The compound further had a 90% effect concentration (IC90) under setting [2] greater than 100 µM. Further, the IC90 under setting [3] is greater than 100 µM.

Regarding `Cc1cc(F)ccc1NCC(=O)Nc1ccc(Br)cc1C`, the IC50 is 94.2 µM (inactive). Also, the half-inhibitory concentration (IC50) under setting [1] was 98.2 µM. In addition, the IC90 under setting [2] was greater than 100 µM. This compound had an IC90 under setting [3] greater than 100 µM.

Consider `O=C(Cc1cccc2ccccc12)N/N=C/c1ccc(O)c([N+](=O)[O-])c1`, for which the IC50 was 17.3 µM (inactive). Also, the half-maximal inhibitory concentration (IC50) under setting [1] was 27.2 µM. Under setting [2], this compound returned a 90% effect concentration (IC90) of 47.2 µM. The compound further gave a concentration for an effect of 90% (IC90) under setting [3] of 31.6 µM.

With `C/C(=N/NC(=O)c1ccc(Cl)s1)c1ccc(NC(=O)COc2ccc(Cl)cc2)cc1`, the IC50 is > 100 µM (inactive). This compound yielded an IC50 under setting [1] greater than 100 µM. The 90% effect concentration (IC90) under setting [2] was greater than 100 µM. The compound further returned a 90% effect concentration (IC90) under setting [3] greater than 100 µM.

Consider `Cc1ccsc1/C=N/Nc1ncc(Cl)cc1Cl`, for which the concentration for half-maximal inhibition (IC50) is 8.81 µM. Under setting [1], the IC50 was determined as 50.9 µM. The IC90 under setting [2] was greater than 100 µM. Moreover, under setting [3], the IC90 is greater than 100 µM.

Regarding `COc1cccc(/C=N/NC(=O)NC23CC4CC(CC(C4)C2)C3)c1O`, the concentration for half-maximal inhibition (IC50) is 2.93 µM. Besides, under setting [1], the IC50 was 46.9 µM. The compound further had an IC90 under setting [2] greater than 100 µM. Also, under setting [3], the 90% effect concentration (IC90) was found to be 26.8 µM.

Take `O=C(OCC(=O)N1CCN(C(=O)c2ccco2)CC1)c1cc(-c2ccco2)nc2ccccc12`: the IC50 is 99.1 µM (inactive). Further, the half-maximal inhibitory concentration (IC50) under setting [1] is greater than 100 µM. Also, the concentration for an effect of 90% (IC90) under setting [2] is greater than 100 µM. This compound showed an IC90 under setting [3] greater than 100 µM.

Consider `CCCOc1ccc(C2Nc3cccc4cccc(c34)N2)cc1`, for which the IC50 was > 100 µM (inactive). Moreover, under setting [1], the IC50 was greater than 100 µM. For the same compound, the IC90 under setting [2] was greater than 100 µM. Under setting [3], this compound registered a 90% effect concentration (IC90) greater than 100 µM.

Take `CC(C)C[C@H](NC(=O)c1nc[nH]c1C(=O)N1CCN(C(=O)OC(C)(C)C)CC1)C(=O)OCc1ccccc1`: the IC50 is 48.8 µM (inactive). The half-maximal inhibitory concentration (IC50) under setting [1] amounted to 49.4 µM. Also, the 90% effect concentration (IC90) under setting [2] is 56.1 µM. For the same compound, the 90% effect concentration (IC90) under setting [3] was 54.9 µM.

`COc1cc(OC)c(C(=O)Nc2cccc3ccccc23)cc1OC`: the IC50 was > 100 µM (inactive). Under setting [1], the half-maximal inhibitory concentration (IC50) is greater than 100 µM. Under setting [2], this compound came in with an IC90 greater than 100 µM. This compound yielded an IC90 under setting [3] greater than 100 µM.

On to `Clc1ccc(-c2csc3ncnc(N4CCc5ccccc5C4)c23)cc1`, for which the IC50 is 95.4 µM (inactive). The 50% inhibitory concentration (IC50) under setting [1] was greater than 100 µM. Also, the concentration for an effect of 90% (IC90) under setting [2] is greater than 100 µM. Also, the 90% effect concentration (IC90) under setting [3] is greater than 100 µM.

For `COc1ccc(/C=C/C(=O)N(C(C)C)C(C)C)cc1Br`, the half-inhibitory concentration (IC50) was 5.89 µM. For the same compound, the 50% inhibitory concentration (IC50) under setting [1] amounted to 93 µM. Further, the concentration for an effect of 90% (IC90) under setting [2] is greater than 100 µM. The concentration for an effect of 90% (IC90) under setting [3] came to 96.4 µM.

As to `CC(C)C1CC(CCNCc2ccc(N(C)C)cc2)(c2ccccc2)CCO1` (stereo not drawn), the IC50 is 24.5 µM (inactive). The half-maximal inhibitory concentration (IC50) under setting [1] amounted to 29 µM. The compound further displayed an IC90 under setting [2] of 40.7 µM. In addition, the IC90 under setting [3] is 26.9 µM.

Regarding `CCO[C@H]1OC(C(=O)NCc2nc3ccccc3[nH]2)=C[C@@H](c2ccc(C(F)(F)F)cc2)[C@@H]1CCCO`, the IC50 is > 100 µM (inactive). Under setting [1], this compound gave an IC50 greater than 100 µM. Besides, the IC90 under setting [2] was greater than 100 µM. This compound came in with an IC90 under setting [3] greater than 100 µM.
